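1) Cells in 96-well plates. 2) Compound, 48 h, 5 concentrations. 3) Linear interpolation between surrounding doses. 4) Unreached endpoint = highest concentration. Here, GI50 denotes the concentration required for 50% inhibition of growth.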 Active and inactive are the calls of the source. Cut-off read from the data, not from the text of the source: active = GI50 up to about 1.1 µM and inactive = higher.
Columns and labels:
Assay in all cases: DTP human tumour cell line panel, 48 h
EKVX = tested on: EKVX
SN12C = tested on: SN12C
COLO 205 = tested on: COLO 205
ACHN = tested on: ACHN
SK-MEL-2 = tested on: SK-MEL-2
TK-10 = tested on: TK-10
NCI-H23 = tested on: NCI-H23
KM12 = tested on: KM12
CAKI-1 = tested on: CAKI-1
UO-31 = tested on: UO-31
MDA-MB-435 = tested on: MDA-MB-435
A549 = tested on: A549
UACC-257 = tested on: UACC-257
DU-145 = tested on: DU-145
SF-295 = tested on: SF-295
U-251 = tested on: U-251
HOP-62 = tested on: HOP-62
HCT-116 = tested on: HCT-116
SNB-19 = tested on: SNB-19
SF-268 = tested on: SF-268

Measured: GI50

O=[N+]([O-])c1ccc2c(c1)nc(Cc1ccc(Cl)cc1)n2C[C@@H]1CCCN2CCCCC12 (stereo not given in full)
inactive: EKVX 8.39 µM | SN12C 13.6 µM | COLO 205 10.4 µM | ACHN 13.4 µM | SK-MEL-2 15.8 µM | TK-10 17.6 µM | NCI-H23 14.9 µM | KM12 13.5 µM | CAKI-1 15.2 µM | UO-31 1.58 µM | MDA-MB-435 14.3 µM | A549 19.2 µM | UACC-257 15.3 µM | DU-145 17.7 µM | SF-295 15.3 µM | U-251 18.6 µM | HOP-62 20.5 µM | HCT-116 10.5 µM | SNB-19 22.8 µM

Cc1ccc2c(n1)NC(=O)C(Cc1ccccc1)(N=[N+]=[N-])C2=O (stereo not given)
inactive: SN12C > 100 µM | COLO 205 > 100 µM | ACHN > 100 µM | TK-10 > 100 µM | NCI-H23 > 100 µM | KM12 > 100 µM | CAKI-1 > 100 µM | UO-31 > 100 µM | MDA-MB-435 > 100 µM | A549 > 100 µM | UACC-257 > 100 µM | DU-145 > 100 µM | SF-268 > 100 µM | SF-295 > 100 µM | U-251 > 100 µM | HOP-62 > 100 µM | HCT-116 > 100 µM | SNB-19 > 100 µM

O=C(N/N=C1/C(=O)c2c3ccccc3cc3cccc1c23)c1cccc(Cl)c1
inactive: SN12C > 100 µM | COLO 205 > 100 µM | ACHN 33 µM | SK-MEL-2 > 100 µM | NCI-H23 > 100 µM | KM12 > 100 µM | CAKI-1 > 100 µM | MDA-MB-435 > 100 µM | A549 > 100 µM | UACC-257 > 100 µM | DU-145 70.3 µM | U-251 94.8 µM | HOP-62 28.9 µM | HCT-116 > 100 µM | SNB-19 41.4 µM

CC(C)=C[C@@H]1C[C@H](C)c2c(O)cc(C)c3c2C1=C(C)C(=O)C3=O [ELISABATIN A]
inactive: EKVX 14.3 µM | SN12C 15 µM | COLO 205 17.7 µM | ACHN 17.6 µM | TK-10 22.3 µM | NCI-H23 13.5 µM | KM12 15.6 µM | CAKI-1 16.6 µM | MDA-MB-435 15.6 µM | A549 10.1 µM | UACC-257 17.6 µM | DU-145 15.3 µM | SF-268 15 µM | SF-295 14.7 µM | U-251 13.8 µM | HOP-62 17.4 µM | HCT-116 15.2 µM | SNB-19 14.4 µM

CC(C)(C)[Si](C)(C)O/N=C\c1ccc(O[Si](C)(C)C(C)(C)C)cc1
inactive: EKVX > 100 µM | SN12C 61.2 µM | COLO 205 > 100 µM | ACHN 37.6 µM | SK-MEL-2 > 100 µM | TK-10 > 100 µM | NCI-H23 > 100 µM | KM12 > 100 µM | CAKI-1 > 100 µM | UO-31 50.9 µM | A549 92.7 µM | UACC-257 > 100 µM | SF-268 49.5 µM | SF-295 52.5 µM | U-251 25.2 µM | HOP-62 > 100 µM | HCT-116 24.2 µM | SNB-19 72.4 µM

C[n+]1c(-c2ccc(/C=N/NC(=S)N/N=C/c3ccc(-c4cn5ccsc5[n+]4C)cc3)cc2)cn2ccsc21
inactive: EKVX > 100 µM | SN12C > 100 µM | COLO 205 > 100 µM | ACHN > 100 µM | TK-10 > 100 µM | KM12 > 100 µM | UO-31 > 100 µM | MDA-MB-435 37.7 µM | A549 > 100 µM | UACC-257 > 100 µM | SF-268 > 100 µM | SF-295 > 100 µM | U-251 > 100 µM | HOP-62 > 100 µM | HCT-116 > 100 µM | SNB-19 > 100 µM

O=C1CN(c2cccc(C(F)(F)F)c2)C(=O)CN1NCNN1CC(=O)N(c2cccc(C(F)(F)F)c2)CC1=O
inactive: EKVX > 100 µM | SN12C > 100 µM | COLO 205 > 100 µM | ACHN > 100 µM | TK-10 > 100 µM | KM12 36 µM | UO-31 > 100 µM | MDA-MB-435 > 100 µM | A549 > 100 µM | UACC-257 > 100 µM | SF-268 > 100 µM | SF-295 > 100 µM | U-251 > 100 µM | HOP-62 > 100 µM | HCT-116 > 100 µM | SNB-19 > 100 µM

COCn1c2ccc(OC(C)=O)cc2c2c(=O)oc(N(C)C)nc21
inactive: EKVX > 100 µM | SN12C > 100 µM | COLO 205 > 100 µM | ACHN > 100 µM | SK-MEL-2 > 100 µM | TK-10 > 100 µM | NCI-H23 > 100 µM | KM12 > 100 µM | CAKI-1 > 100 µM | MDA-MB-435 > 100 µM | A549 > 100 µM | UACC-257 > 100 µM | DU-145 > 100 µM | SF-295 > 100 µM | U-251 > 100 µM | HOP-62 > 100 µM | HCT-116 > 100 µM | SNB-19 > 100 µM

O=C(N/N=C/c1ccccc1)c1c(-c2cccnc2)cnc2ccccc12
inactive: EKVX > 100 µM | SN12C > 100 µM | COLO 205 > 100 µM | ACHN > 100 µM | SK-MEL-2 > 100 µM | TK-10 > 100 µM | NCI-H23 > 100 µM | KM12 33 µM | CAKI-1 > 100 µM | UO-31 > 100 µM | A549 > 100 µM | UACC-257 88.9 µM | DU-145 > 100 µM | SF-268 > 100 µM | SF-295 12 µM | U-251 56.4 µM | HOP-62 87.7 µM | HCT-116 52.5 µM | SNB-19 > 100 µM

S=C1Nc2ccccc2SC1c1ccccc1 (stereo not given)
inactive: EKVX > 100 µM | SN12C > 100 µM | COLO 205 > 100 µM | ACHN 69.3 µM | TK-10 56.6 µM | NCI-H23 74.6 µM | KM12 > 100 µM | CAKI-1 > 100 µM | UO-31 > 100 µM | MDA-MB-435 > 100 µM | A549 > 100 µM | UACC-257 > 100 µM | DU-145 > 100 µM | SF-268 30.3 µM | SF-295 16.4 µM | U-251 47.1 µM | HOP-62 24.8 µM | HCT-116 > 100 µM | SNB-19 39 µM

C1=N\CCN2CCN(CC/N=C\c3ccc(cc3)OCc3cccc(n3)COc3ccc/1cc3)CC2
inactive: EKVX > 50 µM | SN12C > 50 µM | COLO 205 > 50 µM | ACHN > 50 µM | SK-MEL-2 > 50 µM | TK-10 > 50 µM | NCI-H23 > 50 µM | KM12 > 50 µM | UO-31 > 50 µM | MDA-MB-435 > 50 µM | A549 > 50 µM | UACC-257 > 50 µM | DU-145 > 50 µM | SF-268 > 50 µM | SF-295 46.2 µM | U-251 > 50 µM | HOP-62 > 50 µM | HCT-116 > 50 µM | SNB-19 > 50 µM

From ChEMBL document CHEMBL1201862, “PubChem BioAssay data set” (2004)
